From ChEMBL document CHEMBL4804284
Active and inactive are the calls of the source. The rule behind the calls is not given here.

Legend:
[1] = target: SRSF protein kinase 3 (Homo sapiens) (UniProt Q9UPE1); assay: Inhibition of DNA-tagged human SRPK3 assessed as percent of control at 50000 nM by qPCR analysis relative to control; design: scale not given: the % may be the effect or the level left
[2] = target: Megakaryocyte-associated tyrosine-protein kinase (Homo sapiens) (UniProt P42679); assay: Inhibition of DNA-tagged human CTK assessed as percent of control at 50000 nM by qPCR analysis relative to control; design: scale not given: the % may be the effect or the level left
[3] = target: Mitogen-activated protein kinase 12 (Homo sapiens) (UniProt P53778); assay: Inhibition of DNA-tagged human p38-gamma assessed as percent of control at 50000 nM by qPCR analysis relative to control; design: scale not given: the % may be the effect or the level left
[4] = target: Phosphatidylinositol 4-phosphate 5-kinase type-1 alpha (Homo sapiens) (UniProt Q99755); assay: Inhibition of DNA-tagged human PIP5K1A assessed as percent of control at 50000 nM by qPCR analysis relative to control; design: scale not given: the % may be the effect or the level left
[5] = tested on: Receptor-type tyrosine-protein kinase FLT3 (Homo sapiens), P36888 [R834Q]; assay: Inhibition of DNA-tagged human FLT3 R834Q mutant assessed as percent of control at 50000 nM by qPCR analysis relative to control; design: scale not given: the % may be the effect or the level left
[6] = target: Casein kinase I isoform alpha (Homo sapiens) (UniProt P48729); assay: Inhibition of DNA-tagged human CSNK1A1 assessed as percent of control at 50000 nM by qPCR analysis relative to control; design: scale not given: the % may be the effect or the level left
[7] = tested on: Epidermal growth factor receptor (Homo sapiens), P00533 [G719C]; assay: Inhibition of DNA-tagged human EGFR G719C mutant assessed as percent of control at 50000 nM by qPCR analysis relative to control; design: scale not given: the % may be the effect or the level left
[8] = target: Hepatocyte growth factor receptor (Homo sapiens) (UniProt P08581); assay: Inhibition of DNA-tagged human MET assessed as percent of control at 50000 nM by qPCR analysis relative to control; design: scale not given: the % may be the effect or the level left
[9] = target: Serine/threonine-protein kinase MAK (Homo sapiens) (UniProt P20794); assay: Inhibition of DNA-tagged human MAK assessed as percent of control at 50000 nM by qPCR analysis relative to control; design: scale not given: the % may be the effect or the level left
[10] = target: Serine/threonine-protein kinase N1 (Homo sapiens) (UniProt Q16512); assay: Inhibition of DNA-tagged human PKN1 assessed as percent of control at 50000 nM by qPCR analysis relative to control; design: scale not given: the % may be the effect or the level left
[11] = target: Rhodopsin kinase GRK1 (Homo sapiens) (UniProt Q15835); assay: Inhibition of DNA-tagged human GRK1 assessed as percent of control at 50000 nM by qPCR analysis relative to control; design: scale not given: the % may be the effect or the level left
[12] = tested on: Epidermal growth factor receptor (Homo sapiens), P00533 [UNDEFINED MUTATION]; assay: Inhibition of DNA-tagged human EGFR L747-T751del/Sins double mutant assessed as percent of control at 50000 nM by qPCR analysis relative to control; design: scale not given: the % may be the effect or the level left
[13] = target: cGMP-dependent protein kinase 1 (Homo sapiens) (UniProt Q13976); assay: Inhibition of DNA-tagged human PRKG1 assessed as percent of control at 50000 nM by qPCR analysis relative to control; design: scale not given: the % may be the effect or the level left
[14] = target: Serine/threonine-protein kinase 10 (Homo sapiens) (UniProt O94804); assay: Inhibition of DNA-tagged human LOK assessed as percent of control at 50000 nM by qPCR analysis relative to control; design: scale not given: the % may be the effect or the level left
[15] = target: Non-receptor tyrosine-protein kinase TYK2 (Homo sapiens) (UniProt P29597); assay: Inhibition of DNA-tagged human TYK2 JH1 catalytic domain assessed as percent of control at 50000 nM by qPCR analysis relative to control; design: scale not given: the % may be the effect or the level left
[16] = target: Serine/threonine-protein kinase PAK 3 (Homo sapiens) (UniProt O75914); assay: Inhibition of DNA-tagged human PAK3 assessed as percent of control at 50000 nM by qPCR analysis relative to control; design: scale not given: the % may be the effect or the level left
[17] = target: Serine/threonine-protein kinase SIK1 (Homo sapiens) (UniProt P57059); assay: Inhibition of DNA-tagged human SIK assessed as percent of control at 50000 nM by qPCR analysis relative to control; design: scale not given: the % may be the effect or the level left
[18] = target: Non-receptor tyrosine-protein kinase TYK2 (Homo sapiens) (UniProt P29597); assay: Inhibition of DNA-tagged human TYK2 JH2 pseudokinase domain assessed as percent of control at 50000 nM by qPCR analysis relative to control; design: scale not given: the % may be the effect or the level left
[19] = target: Mitogen-activated protein kinase kinase kinase 11 (Homo sapiens) (UniProt Q16584); assay: Inhibition of DNA-tagged human MLK3 assessed as percent of control at 50000 nM by qPCR analysis relative to control; design: scale not given: the % may be the effect or the level left
[20] = target: Activin receptor type-2B (Homo sapiens) (UniProt Q13705); assay: Inhibition of DNA-tagged human ACVR2B assessed as percent of control at 50000 nM by qPCR analysis relative to control; design: scale not given: the % may be the effect or the level left
[21] = target: Tyrosine-protein kinase receptor TYRO3 (Homo sapiens) (UniProt Q06418); assay: Inhibition of DNA-tagged human TYRO3 assessed as percent of control at 50000 nM by qPCR analysis relative to control; design: scale not given: the % may be the effect or the level left
[22] = target: Dual specificity mitogen-activated protein kinase kinase 7 (Homo sapiens) (UniProt O14733); assay: Inhibition of DNA-tagged human MKK7 assessed as percent of control at 50000 nM by qPCR analysis relative to control; design: scale not given: the % may be the effect or the level left
[23] = target: Dual specificity testis-specific protein kinase 1 (Homo sapiens) (UniProt Q15569); assay: Inhibition of DNA-tagged human TESK1 assessed as percent of control at 50000 nM by qPCR analysis relative to control; design: scale not given: the % may be the effect or the level left
[24] = target: Inhibitor of nuclear factor kappa-B kinase subunit epsilon (Homo sapiens) (UniProt Q14164); assay: Inhibition of DNA-tagged human IKK-epsilon assessed as percent of control at 50000 nM by qPCR analysis relative to control; design: scale not given: the % may be the effect or the level left
KG-1 = assay: Cytotoxicity against human KG-1 cells at 0.1-100 uM assessed as decrease in cell viability relative to control; type: functional, cell-based
[25] = target: Serine/threonine-protein kinase 17B (Homo sapiens) (UniProt O94768); assay: Inhibition of DNA-tagged human DRAK2 assessed as percent of control at 50000 nM by qPCR analysis relative to control; design: scale not given: the % may be the effect or the level left
[26] = target: Ribosomal protein S6 kinase alpha-1 (Homo sapiens) (UniProt Q15418); assay: Inhibition of DNA-tagged human C-terminal RSK1 kinase domain 2 assessed as percent of control at 50000 nM by qPCR analysis relative to control; design: scale not given: the % may be the effect or the level left
[27] = target: Ephrin type-B receptor 6 (Homo sapiens) (UniProt O15197); assay: Inhibition of DNA-tagged human EPHB6 assessed as percent of control at 50000 nM by qPCR analysis relative to control; design: scale not given: the % may be the effect or the level left
[28] = target: Phosphatidylinositol 4-kinase beta (Homo sapiens) (UniProt Q9UBF8); assay: Inhibition of DNA-tagged human PIK4CB assessed as percent of control at 50000 nM by qPCR analysis relative to control; design: scale not given: the % may be the effect or the level left
[29] = target: Serine/threonine-protein kinase 17A (Homo sapiens) (UniProt Q9UEE5); assay: Inhibition of DNA-tagged human DRAK1 assessed as percent of control at 50000 nM by qPCR analysis relative to control; design: scale not given: the % may be the effect or the level left

Sequence of Non-receptor tyrosine-protein kinase TYK2 (Homo sapiens) (P29597 whole entry, the tested form may be a part): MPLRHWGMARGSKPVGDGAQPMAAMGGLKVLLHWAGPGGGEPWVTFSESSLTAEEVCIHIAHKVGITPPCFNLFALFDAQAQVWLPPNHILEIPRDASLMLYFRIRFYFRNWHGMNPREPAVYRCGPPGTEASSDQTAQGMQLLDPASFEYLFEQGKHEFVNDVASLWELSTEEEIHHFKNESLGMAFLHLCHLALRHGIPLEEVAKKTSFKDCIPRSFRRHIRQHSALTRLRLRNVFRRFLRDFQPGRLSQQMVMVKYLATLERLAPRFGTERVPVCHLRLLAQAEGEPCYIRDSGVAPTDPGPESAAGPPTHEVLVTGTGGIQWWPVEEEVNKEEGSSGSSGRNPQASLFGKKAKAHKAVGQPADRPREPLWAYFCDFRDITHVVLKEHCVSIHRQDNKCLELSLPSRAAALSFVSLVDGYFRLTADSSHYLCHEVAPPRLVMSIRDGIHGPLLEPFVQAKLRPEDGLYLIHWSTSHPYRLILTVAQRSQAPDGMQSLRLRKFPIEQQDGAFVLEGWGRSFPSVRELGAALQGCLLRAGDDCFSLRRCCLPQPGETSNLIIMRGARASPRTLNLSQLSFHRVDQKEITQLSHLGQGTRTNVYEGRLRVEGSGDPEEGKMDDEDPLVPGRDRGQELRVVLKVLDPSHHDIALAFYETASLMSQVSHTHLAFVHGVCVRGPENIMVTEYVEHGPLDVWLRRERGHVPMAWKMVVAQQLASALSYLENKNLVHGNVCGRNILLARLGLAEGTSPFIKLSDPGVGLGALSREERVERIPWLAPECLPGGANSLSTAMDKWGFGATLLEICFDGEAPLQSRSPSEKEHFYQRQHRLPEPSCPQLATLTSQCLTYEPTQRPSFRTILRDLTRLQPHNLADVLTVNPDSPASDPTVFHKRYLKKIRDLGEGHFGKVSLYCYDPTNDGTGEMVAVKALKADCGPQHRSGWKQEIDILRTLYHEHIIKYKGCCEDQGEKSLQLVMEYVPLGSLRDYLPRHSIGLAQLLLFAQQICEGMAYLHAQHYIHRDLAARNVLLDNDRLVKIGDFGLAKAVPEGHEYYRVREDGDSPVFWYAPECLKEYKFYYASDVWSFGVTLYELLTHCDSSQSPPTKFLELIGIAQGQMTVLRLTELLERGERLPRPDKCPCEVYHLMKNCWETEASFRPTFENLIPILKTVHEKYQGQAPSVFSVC
Sequence of Tyrosine-protein kinase receptor TYRO3 (Homo sapiens) (Q06418 whole entry): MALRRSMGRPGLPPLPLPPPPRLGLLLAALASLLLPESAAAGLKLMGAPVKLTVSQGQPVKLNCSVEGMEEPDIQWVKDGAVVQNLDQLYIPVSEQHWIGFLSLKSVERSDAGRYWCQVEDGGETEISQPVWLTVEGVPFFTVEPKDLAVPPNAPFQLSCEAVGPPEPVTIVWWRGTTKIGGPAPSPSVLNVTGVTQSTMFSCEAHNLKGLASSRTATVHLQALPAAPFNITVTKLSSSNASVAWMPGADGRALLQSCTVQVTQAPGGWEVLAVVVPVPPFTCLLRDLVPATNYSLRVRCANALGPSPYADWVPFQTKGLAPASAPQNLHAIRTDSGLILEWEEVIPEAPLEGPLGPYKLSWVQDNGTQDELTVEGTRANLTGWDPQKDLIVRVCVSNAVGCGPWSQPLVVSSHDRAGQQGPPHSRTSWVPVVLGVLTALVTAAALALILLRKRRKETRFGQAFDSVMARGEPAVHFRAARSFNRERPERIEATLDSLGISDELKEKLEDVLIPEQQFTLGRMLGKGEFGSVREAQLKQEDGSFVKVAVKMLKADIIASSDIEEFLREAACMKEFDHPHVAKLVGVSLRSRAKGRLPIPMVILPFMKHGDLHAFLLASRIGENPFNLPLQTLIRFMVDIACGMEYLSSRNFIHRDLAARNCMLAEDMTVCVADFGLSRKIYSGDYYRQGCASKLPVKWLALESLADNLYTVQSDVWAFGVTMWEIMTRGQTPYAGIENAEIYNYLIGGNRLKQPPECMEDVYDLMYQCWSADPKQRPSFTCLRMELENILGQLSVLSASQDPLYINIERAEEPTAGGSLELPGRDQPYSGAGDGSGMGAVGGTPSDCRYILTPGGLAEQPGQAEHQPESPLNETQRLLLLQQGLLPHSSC
Sequence of Ephrin type-B receptor 6 (Homo sapiens) (O15197 whole entry): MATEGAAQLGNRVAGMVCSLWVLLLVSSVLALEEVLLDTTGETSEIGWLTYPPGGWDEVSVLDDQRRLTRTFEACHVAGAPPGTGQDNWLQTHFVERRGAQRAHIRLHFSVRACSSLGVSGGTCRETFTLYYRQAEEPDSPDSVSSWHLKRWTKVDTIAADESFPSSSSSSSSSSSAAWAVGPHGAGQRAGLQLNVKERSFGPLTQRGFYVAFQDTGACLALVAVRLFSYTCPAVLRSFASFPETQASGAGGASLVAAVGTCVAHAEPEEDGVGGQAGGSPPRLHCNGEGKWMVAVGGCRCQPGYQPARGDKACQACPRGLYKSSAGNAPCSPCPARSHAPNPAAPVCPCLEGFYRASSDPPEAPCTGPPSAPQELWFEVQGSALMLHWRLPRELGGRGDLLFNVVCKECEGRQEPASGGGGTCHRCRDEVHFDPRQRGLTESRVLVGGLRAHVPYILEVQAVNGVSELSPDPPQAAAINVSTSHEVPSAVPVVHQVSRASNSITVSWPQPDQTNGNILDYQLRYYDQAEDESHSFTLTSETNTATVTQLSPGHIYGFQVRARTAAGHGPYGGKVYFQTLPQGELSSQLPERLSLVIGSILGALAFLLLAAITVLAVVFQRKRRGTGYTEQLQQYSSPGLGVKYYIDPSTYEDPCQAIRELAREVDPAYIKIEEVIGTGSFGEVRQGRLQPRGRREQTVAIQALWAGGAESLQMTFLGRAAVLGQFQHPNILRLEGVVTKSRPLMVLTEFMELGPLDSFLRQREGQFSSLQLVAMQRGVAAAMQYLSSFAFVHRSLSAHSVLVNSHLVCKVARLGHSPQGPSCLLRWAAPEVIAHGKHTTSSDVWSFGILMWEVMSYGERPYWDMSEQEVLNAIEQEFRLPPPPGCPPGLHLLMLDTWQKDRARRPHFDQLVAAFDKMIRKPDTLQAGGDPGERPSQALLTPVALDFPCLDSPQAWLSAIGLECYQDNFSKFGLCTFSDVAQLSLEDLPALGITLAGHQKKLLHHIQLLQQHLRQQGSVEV
Sequence of Mitogen-activated protein kinase kinase kinase 11 (Homo sapiens) (Q16584 whole entry, looked up): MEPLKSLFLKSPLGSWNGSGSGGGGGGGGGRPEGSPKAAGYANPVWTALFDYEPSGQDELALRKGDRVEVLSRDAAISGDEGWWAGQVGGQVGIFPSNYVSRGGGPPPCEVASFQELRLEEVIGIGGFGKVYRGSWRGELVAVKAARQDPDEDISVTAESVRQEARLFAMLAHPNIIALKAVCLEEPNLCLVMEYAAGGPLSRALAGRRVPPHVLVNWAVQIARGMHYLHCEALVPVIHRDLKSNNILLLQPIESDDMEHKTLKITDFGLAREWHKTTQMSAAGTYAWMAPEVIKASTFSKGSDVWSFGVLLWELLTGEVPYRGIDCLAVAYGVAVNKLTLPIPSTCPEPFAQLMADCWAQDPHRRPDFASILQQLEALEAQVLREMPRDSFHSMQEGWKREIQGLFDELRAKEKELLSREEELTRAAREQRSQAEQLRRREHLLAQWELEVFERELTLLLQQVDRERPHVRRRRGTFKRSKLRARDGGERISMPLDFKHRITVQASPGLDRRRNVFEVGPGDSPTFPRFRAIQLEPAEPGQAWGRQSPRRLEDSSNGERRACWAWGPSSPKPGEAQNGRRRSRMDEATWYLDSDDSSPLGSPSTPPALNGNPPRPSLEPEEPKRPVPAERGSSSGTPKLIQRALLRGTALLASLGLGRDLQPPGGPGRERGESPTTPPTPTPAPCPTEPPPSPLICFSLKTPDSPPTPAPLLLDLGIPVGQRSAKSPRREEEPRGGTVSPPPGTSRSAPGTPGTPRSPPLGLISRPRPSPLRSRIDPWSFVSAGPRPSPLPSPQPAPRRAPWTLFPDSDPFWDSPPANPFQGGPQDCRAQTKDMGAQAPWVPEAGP
Sequence of Serine/threonine-protein kinase 10 (Homo sapiens) (O94804 whole entry, looked up, the tested form may be a part): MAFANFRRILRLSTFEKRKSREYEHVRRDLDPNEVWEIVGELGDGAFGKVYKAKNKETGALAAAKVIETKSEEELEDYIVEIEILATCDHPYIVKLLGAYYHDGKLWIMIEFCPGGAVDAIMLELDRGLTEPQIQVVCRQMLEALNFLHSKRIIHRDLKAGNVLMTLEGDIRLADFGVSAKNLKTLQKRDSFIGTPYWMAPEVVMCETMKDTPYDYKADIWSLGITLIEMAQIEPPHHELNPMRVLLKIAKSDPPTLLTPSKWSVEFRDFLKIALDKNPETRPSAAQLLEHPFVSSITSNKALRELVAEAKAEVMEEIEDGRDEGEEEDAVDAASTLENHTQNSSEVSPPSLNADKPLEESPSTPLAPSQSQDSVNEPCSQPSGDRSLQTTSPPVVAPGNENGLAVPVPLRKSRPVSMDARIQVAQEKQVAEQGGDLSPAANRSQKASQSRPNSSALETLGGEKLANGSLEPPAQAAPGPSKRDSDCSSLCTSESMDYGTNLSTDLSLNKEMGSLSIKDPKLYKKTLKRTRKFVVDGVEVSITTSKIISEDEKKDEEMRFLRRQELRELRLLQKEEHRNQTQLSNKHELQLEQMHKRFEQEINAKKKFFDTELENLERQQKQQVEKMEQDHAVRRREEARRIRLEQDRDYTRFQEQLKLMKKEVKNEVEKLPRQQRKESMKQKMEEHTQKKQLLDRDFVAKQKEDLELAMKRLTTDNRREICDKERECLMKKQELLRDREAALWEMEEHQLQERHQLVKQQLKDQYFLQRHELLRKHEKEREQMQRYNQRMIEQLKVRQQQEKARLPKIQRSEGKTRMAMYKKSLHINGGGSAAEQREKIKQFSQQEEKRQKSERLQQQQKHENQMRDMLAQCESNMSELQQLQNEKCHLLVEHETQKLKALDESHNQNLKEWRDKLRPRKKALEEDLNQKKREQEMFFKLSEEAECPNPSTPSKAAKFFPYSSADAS

`CN1C(=O)/C(=C2/C(=O)Nc3ccccc32)c2ccccc21` showed an Activity [1] of 100%, an Activity [2] of 56% and an Activity [3] of 92%. It also gave an Activity [4] of 100%, an Activity [5] of 100% and an Activity [6] of 100%. It also gave an Activity [7] of 89%, an Activity [8] of 100% and an Activity [9] of 71%. The Activity [10] was 100%, the Activity [11] was 100% and the Activity [12] was 87%. The Activity [13] was 95%, the Activity [14] was 100% and the Activity [15] was 77%. The Activity [16] was 93%, the Activity [17] was 93% and the Activity [18] was 88%. The Activity [19] was 71%, the Activity [20] was 100% and the Activity [21] was 77%. It also gave an Activity [22] of 75%, an Activity [23] of 100% and an Activity [24] of 100%. For the same molecule, the Activity (KG-1) was “Active”, the Activity [25] was 100% and the Activity [26] was 84%. It also gave an Activity [27] of 89%, an Activity [28] of 100% and an Activity [29] of 100%.
